Measured values reported in ChEMBL document CHEMBL3885881, “DrugMatrix”.

Species on record: Rattus norvegicus
Test: DrugMatrix - Regimen: Daily Repeat
Assay type: toxicity, organism-based, Sprague-Dawley
Set-up: regimen Daily Repeat, gender Male, age 6-8 weeks
Settings: in vivo, po, route oral GAVAGE, […]; for ABSOLUTE BASOPHIL / BASOPHIL / NUCLEATED RED BLOOD CELLS / ABSOLUTE EOSINOPHIL / ABSOLUTE LYMPHOCYTE / ABSOLUTE MONOCYTE / ABSOLUTE SEGMENTED NEUTROPHIL / EOSINOPHIL / ERYTHROCYTE COUNT / HEMATOCRIT / LEUKOCYTE COUNT / MEAN CORPUSCULAR HEMOGLOBIN / MEAN CORPUSCULAR HEMOGLOBIN CONCENTRATION / MEAN CORPUSCULAR VOLUME / MONOCYTE / NEUTROPHIL / PLATELET COUNT: tissue Blood; for TOTAL BILIRUBIN / ALANINE AMINOTRANSFERASE / ALBUMIN / ALKALINE PHOSPHATASE / ASPARTATE AMINOTRANSFERASE / BLOOD UREA NITROGEN / CHLORIDE / CHOLESTEROL / CREATINE PHOSPHOKINASE / CREATININE / GLUCOSE / LACTATE DEHYDROGENASE / LIPASE / PHOSPHORUS / POTASSIUM / URIC ACID: tissue Plasma
[1] = 0 mg/kg, 72 h, dose level Control, time 3 day
[2] = 0 mg/kg, 120 h, dose level Control, time 5 day
[3] = 1 mg/kg, 72 h, dose level Low, time 3 day
[4] = 1 mg/kg, 120 h, dose level Low, time 5 day
[5] = 150 mg/kg, 72 h, dose level M1, time 3 day

C[C@@H]1C[C@H]2[C@@H]3CCC4=CC(=O)C=C[C@]4(C)[C@@]3(F)[C@@H](O)C[C@]2(C)[C@@]1(O)C(=O)CO [DEXAMETHASONE]
ABSOLUTE BASOPHIL [1]: 0 CELLS/uL
BASOPHIL [1]: 0%
NUCLEATED RED BLOOD CELLS [1]: 0 /100WBC
TOTAL BILIRUBIN [1]: 0.2 mg/dL
ABSOLUTE BASOPHIL [2]: 0 CELLS/uL
BASOPHIL [2]: 0%
ABSOLUTE BASOPHIL [3]: 0 CELLS/uL
ABSOLUTE EOSINOPHIL [3]: 0 CELLS/uL
ABSOLUTE LYMPHOCYTE [3]: 386.33 CELLS/uL
ABSOLUTE MONOCYTE [3]: 54.33 CELLS/uL
ABSOLUTE SEGMENTED NEUTROPHIL [3]: 12226 CELLS/uL
BASOPHIL [3]: 0%
EOSINOPHIL [3]: 0%
ERYTHROCYTE COUNT [3]: 4.89 x10E6/uL
HEMATOCRIT [3]: 30.93%
LEUKOCYTE COUNT [3]: 12.67 x10E3/uL
MEAN CORPUSCULAR HEMOGLOBIN [3]: 25.53 pg
MEAN CORPUSCULAR HEMOGLOBIN CONCENTRATION [3]: 40.3 G/DL
MEAN CORPUSCULAR VOLUME [3]: 63.33 fL
MONOCYTE [3]: 0.33%
NEUTROPHIL [3]: 96%
NUCLEATED RED BLOOD CELLS [3]: 1 /100WBC
PLATELET COUNT [3]: 1088 x10E3/uL
ALANINE AMINOTRANSFERASE [3]: 118.33 u/L
ALBUMIN [3]: 4.1 G/DL
ALKALINE PHOSPHATASE [3]: 632 u/L
ASPARTATE AMINOTRANSFERASE [3]: 203 u/L
BLOOD UREA NITROGEN [3]: 28.33 mg/dL
CHLORIDE [3]: 95 MEQ/L
CHOLESTEROL [3]: 76.33 mg/dL
CREATINE PHOSPHOKINASE [3]: 789 u/L
CREATININE [3]: 0.16 mg/dL
GLUCOSE [3]: 441 mg/dL
LACTATE DEHYDROGENASE [3]: 205.67 u/L
LIPASE [3]: 45.67 u/L
PHOSPHORUS [3]: 10.57 mg/dL
POTASSIUM [3]: 5.98 MEQ/L
TOTAL BILIRUBIN [3]: 0.33 mg/dL
URIC ACID [3]: 1.2 mg/dL
ABSOLUTE BASOPHIL [4]: 0 CELLS/uL
ABSOLUTE EOSINOPHIL [4]: 0 CELLS/uL
ABSOLUTE LYMPHOCYTE [4]: 716 CELLS/uL
ABSOLUTE MONOCYTE [4]: 233 CELLS/uL
ABSOLUTE SEGMENTED NEUTROPHIL [4]: 18184.33 CELLS/uL
BASOPHIL [4]: 0%
EOSINOPHIL [4]: 0%
ERYTHROCYTE COUNT [4]: 3.43 x10E6/uL
HEMATOCRIT [4]: 25.35%
LEUKOCYTE COUNT [4]: 19.13 x10E3/uL
MEAN CORPUSCULAR HEMOGLOBIN [4]: 24.9 pg
MEAN CORPUSCULAR HEMOGLOBIN CONCENTRATION [4]: 40.75 G/DL
MEAN CORPUSCULAR VOLUME [4]: 59.67 fL
MONOCYTE [4]: 1.33%
NEUTROPHIL [4]: 94%
NUCLEATED RED BLOOD CELLS [4]: 3.33 /100WBC
PLATELET COUNT [4]: 832.67 x10E3/uL
ALANINE AMINOTRANSFERASE [4]: 247 u/L
ALBUMIN [4]: 3.87 G/DL
ALKALINE PHOSPHATASE [4]: 684.67 u/L
ASPARTATE AMINOTRANSFERASE [4]: 267.67 u/L
BLOOD UREA NITROGEN [4]: 20 mg/dL
CHLORIDE [4]: 95 MEQ/L
CHOLESTEROL [4]: 149.67 mg/dL
CREATINE PHOSPHOKINASE [4]: 312.33 u/L
CREATININE [4]: 0.11 mg/dL
GLUCOSE [4]: 438.67 mg/dL
LACTATE DEHYDROGENASE [4]: 287.33 u/L
LIPASE [4]: 21.67 u/L
PHOSPHORUS [4]: 9.83 mg/dL
POTASSIUM [4]: 5.94 MEQ/L
TOTAL BILIRUBIN [4]: 0.25 mg/dL
URIC ACID [4]: 1.43 mg/dL
ABSOLUTE BASOPHIL [5]: 0 CELLS/uL
ABSOLUTE EOSINOPHIL [5]: 0 CELLS/uL
ABSOLUTE LYMPHOCYTE [5]: 851.67 CELLS/uL
ABSOLUTE MONOCYTE [5]: 0 CELLS/uL
ABSOLUTE SEGMENTED NEUTROPHIL [5]: 8381.67 CELLS/uL
BASOPHIL [5]: 0%
EOSINOPHIL [5]: 0%
ERYTHROCYTE COUNT [5]: 3.49 x10E6/uL
HEMATOCRIT [5]: 22.2%
LEUKOCYTE COUNT [5]: 9.23 x10E3/uL
MEAN CORPUSCULAR HEMOGLOBIN [5]: 24.87 pg
MEAN CORPUSCULAR HEMOGLOBIN CONCENTRATION [5]: 39.17 G/DL
MEAN CORPUSCULAR VOLUME [5]: 63.47 fL
